Values quoted from earlier work in US20070065359A1, “Nanocells for diagnosis and treatment of diseases and disorders” (priority 2005, published 2007).

Biological target: TF antigen
Conditions: peptide displayed as a monomer; read-out: affinity for the TF antigen

## IVWHRWYAWSPASRI [TF antigen-binding peptide, I—V—W—H—R—W—Y-A-W—S—P-A-S—R—I]
  Kd: 600 nM
